One data set relates to guinea pig left atria. Kind of data set: Positive inotropic effect in guinea pig left atria. The note with it: 37°; for EC50: left atria paced at 2Hz, cumulative addition to maximum 10^-4, read-out: EC50 (concentration that increases DT by 50% above the control DT); for Intrinsic Activity (ratio of the maximum effect of the test compound to that of Bay K 8644): relative to Bay K 8644, left atria paced at 2Hz. How it is done:
Guinea pigs are killed by cervical dislocation. The left atria are removed and mounted at 1 gm resting tension in tissue baths containing oxygenated Krebs bicarbonate solution which is kept at 37°. The left atria are electrically paced at 2Hz with square wave pulses of 1 msec duration. The voltage is set at 1.5× threshold level.
After a one hour equilibration period, control values for developed tension (DT, gm) are recorded. Test compounds are then added to the baths, in a cumulative manner to a maximum concentration of 10^-4, to obtain a concentration-response curve. Treatment values of DT are obtained after the rug effect has reached a plateau and the exposure time for each concentration is 5-8 minutes. Percent change of the treatment value from the control value is calculated at each concentration of the test compound.

For another data set, the system named is calcium ions influx. The note with it: cited from earlier work.
Data set [1] deals with coronary vasoconstriction. The note with it: cited from earlier work.
In the next data set the target is alpha1 -adrenoceptors. Kind of data set: [^3 H]-prazosin binding assay (affinity for alpha1-adrenoceptors). The note with it: rat brain membranes, 0.2 nM [^3 H]-prazosin, 60 minutes at 25°. How it is done: The [^3 H]-prazosin binding assay was carried out according to the method described by Timmermans, P. B. M. W. M., Schoop, A. M. C., and Van Zwieten, P. A.: Biochem Pharmacol., 31, 899-905, 1982 (1). The reaction mixture contained partially purified rat brain membranes (source of alpha1 -adrenoceptors), 0.2 nM [^3 H]-prazosin with or without potential displacer in Tris buffer. The mixture was incubated for 60 minutes at 25° and subsequently terminated by rapid filtration through glass fiber-filter. Receptor-bound [^3 H]-prazosin trapped in the filter was quantitated by scintillation counting. The inhibitory concentration (IC50) of potential displacer which gives 50% displacement of the total specifically bound [^3 H]-prazosin is presented as a measure of the affinity of such compound for the alpha1 -adrenoceptor.

Another data set addresses T1, Ca^2 + channels (Rattus norvegicus, UniProt P22002).
T1 construct: rat cardiac microsomes (source of Ca^2 + channels); from tissue; host or cells: rat cardiac microsomes
The data set is described as follows: [^3 H]-Nitrendipine binding assay (affinity for calcium channels). The note with it: rat cardiac microsomes, 0.5 nM [^3 H]-nitrendipine, 60 minutes at 25°. Here is the method: [^3 H]-Nitrendipine binding assay was carried out according to the method described by G. T. Bolger, et al., Biochem. Biophys. Res. Comm., 104, 1604-1609, 1982 (1). The reaction mixture contained rat cardiac microsomes (source of Ca^2 + channels), 0.5 nM [^3 H]-nitrendipinewith or without potential displacer in Tris buffer. The mixture was incubated for 60 minutes at 25° and subsequently terminated by rapid filtration through a glass fiber-filter. Membrane-bound [^3 H]-nitrendipine trapped in the filter was quantitated by scintillation counting. The inhibitory concentration (IC50) of potential displacer which gives 50% displacement of the total specifically bound [^3 H]-nitrendipine is presented as a measure of the affinity of such compound for the Ca^2 + channel.

Broadly, the IC50 is the concentration at which inhibition is half-maximal.

A value given as a limit tells only on which side of the number the result lay.

T1 sequence (P22002 whole entry, other chains not shown): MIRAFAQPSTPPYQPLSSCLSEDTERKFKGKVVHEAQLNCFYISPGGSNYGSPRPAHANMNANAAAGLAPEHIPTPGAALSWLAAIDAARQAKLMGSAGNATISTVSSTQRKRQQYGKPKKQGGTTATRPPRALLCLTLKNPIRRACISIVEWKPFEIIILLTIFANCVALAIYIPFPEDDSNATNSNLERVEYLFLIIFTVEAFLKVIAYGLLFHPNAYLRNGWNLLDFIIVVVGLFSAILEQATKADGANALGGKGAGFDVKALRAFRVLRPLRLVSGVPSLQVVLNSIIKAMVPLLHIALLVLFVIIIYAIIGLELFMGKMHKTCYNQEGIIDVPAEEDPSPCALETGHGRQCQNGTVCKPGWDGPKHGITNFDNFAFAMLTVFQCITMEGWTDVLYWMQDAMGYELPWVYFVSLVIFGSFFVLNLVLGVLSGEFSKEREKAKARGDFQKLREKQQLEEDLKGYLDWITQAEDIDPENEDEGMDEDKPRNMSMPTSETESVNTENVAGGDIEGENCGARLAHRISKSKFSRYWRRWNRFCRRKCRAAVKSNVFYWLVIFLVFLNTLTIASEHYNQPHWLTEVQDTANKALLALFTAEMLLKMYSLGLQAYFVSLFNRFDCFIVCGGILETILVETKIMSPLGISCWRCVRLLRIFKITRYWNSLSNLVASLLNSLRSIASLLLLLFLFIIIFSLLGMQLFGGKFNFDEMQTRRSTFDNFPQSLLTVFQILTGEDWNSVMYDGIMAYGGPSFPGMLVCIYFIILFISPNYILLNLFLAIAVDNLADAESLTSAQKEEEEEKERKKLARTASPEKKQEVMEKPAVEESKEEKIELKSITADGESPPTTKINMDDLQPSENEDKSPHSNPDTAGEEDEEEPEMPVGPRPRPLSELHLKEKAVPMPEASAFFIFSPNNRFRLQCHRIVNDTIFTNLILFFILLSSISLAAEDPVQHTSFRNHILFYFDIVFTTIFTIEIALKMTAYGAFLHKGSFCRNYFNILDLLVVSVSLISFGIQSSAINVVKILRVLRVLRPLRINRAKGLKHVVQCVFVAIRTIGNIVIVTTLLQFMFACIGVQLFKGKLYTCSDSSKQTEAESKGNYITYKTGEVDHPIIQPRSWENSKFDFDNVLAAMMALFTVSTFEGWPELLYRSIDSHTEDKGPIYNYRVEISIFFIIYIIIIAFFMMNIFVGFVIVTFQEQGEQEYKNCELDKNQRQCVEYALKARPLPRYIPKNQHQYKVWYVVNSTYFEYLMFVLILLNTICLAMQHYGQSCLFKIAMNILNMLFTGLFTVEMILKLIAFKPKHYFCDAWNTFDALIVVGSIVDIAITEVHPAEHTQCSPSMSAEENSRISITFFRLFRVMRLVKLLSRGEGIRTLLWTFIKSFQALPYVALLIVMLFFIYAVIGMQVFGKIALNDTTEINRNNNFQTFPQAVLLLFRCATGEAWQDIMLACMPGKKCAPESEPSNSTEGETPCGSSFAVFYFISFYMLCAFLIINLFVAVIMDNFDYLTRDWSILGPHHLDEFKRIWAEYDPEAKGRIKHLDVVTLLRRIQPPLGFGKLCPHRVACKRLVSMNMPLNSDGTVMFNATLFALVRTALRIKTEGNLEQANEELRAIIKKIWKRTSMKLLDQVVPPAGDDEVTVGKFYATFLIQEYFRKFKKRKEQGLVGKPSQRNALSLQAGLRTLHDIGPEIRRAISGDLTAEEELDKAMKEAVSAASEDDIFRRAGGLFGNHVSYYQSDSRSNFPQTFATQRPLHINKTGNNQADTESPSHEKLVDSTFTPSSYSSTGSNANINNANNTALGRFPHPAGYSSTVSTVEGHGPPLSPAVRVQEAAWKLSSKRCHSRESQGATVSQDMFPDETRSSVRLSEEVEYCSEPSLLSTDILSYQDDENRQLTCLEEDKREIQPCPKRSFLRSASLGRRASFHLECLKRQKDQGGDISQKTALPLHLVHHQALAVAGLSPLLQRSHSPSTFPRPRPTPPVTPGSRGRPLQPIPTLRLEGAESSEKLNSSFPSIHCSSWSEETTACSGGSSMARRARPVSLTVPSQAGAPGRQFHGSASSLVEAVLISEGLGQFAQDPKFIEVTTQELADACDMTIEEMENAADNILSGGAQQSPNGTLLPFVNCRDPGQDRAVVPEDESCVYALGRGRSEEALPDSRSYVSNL
T1 sequence (P54290 25-944 partner limits assumed, other chains not shown): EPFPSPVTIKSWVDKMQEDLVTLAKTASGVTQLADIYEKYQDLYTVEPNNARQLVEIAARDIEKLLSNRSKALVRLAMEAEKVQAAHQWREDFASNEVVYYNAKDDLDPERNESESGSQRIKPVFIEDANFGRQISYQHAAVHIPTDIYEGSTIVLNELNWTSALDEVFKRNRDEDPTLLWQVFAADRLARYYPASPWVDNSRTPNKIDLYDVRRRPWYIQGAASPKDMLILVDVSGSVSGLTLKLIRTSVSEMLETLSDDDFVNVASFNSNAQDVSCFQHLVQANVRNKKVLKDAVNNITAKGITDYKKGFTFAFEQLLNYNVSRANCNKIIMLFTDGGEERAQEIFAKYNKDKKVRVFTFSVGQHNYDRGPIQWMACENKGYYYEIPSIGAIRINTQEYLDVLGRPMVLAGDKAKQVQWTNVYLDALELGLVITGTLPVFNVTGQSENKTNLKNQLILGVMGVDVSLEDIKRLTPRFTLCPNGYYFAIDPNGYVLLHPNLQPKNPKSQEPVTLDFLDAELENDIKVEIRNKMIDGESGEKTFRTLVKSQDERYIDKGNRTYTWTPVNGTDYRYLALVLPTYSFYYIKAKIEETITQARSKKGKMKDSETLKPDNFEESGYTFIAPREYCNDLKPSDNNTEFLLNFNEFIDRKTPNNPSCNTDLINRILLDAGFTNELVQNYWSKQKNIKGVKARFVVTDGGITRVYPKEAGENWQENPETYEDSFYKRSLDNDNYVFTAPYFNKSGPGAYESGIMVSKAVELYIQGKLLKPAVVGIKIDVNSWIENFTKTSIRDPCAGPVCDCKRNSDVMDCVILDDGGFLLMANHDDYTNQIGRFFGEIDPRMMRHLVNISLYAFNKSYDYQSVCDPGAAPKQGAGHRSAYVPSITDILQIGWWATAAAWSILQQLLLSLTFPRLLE
T1 sequence (P54290 945-1091 partner limits assumed, other chains not shown): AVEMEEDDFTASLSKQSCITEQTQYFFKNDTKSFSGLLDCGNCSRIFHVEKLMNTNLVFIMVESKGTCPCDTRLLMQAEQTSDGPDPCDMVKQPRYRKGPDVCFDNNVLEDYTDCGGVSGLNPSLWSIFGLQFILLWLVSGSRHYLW

On to `COC(=O)C1=C(C)NC(C)=C([N+](=O)[O-])C1c1ccccc1C(F)(F)F` (stereo not shown) [Bay K8644], for which, in the data set on guinea pig left atria, the EC50 was 150 nM and the “Intrinsic Activity (ratio of the maximum effect of the test compound to that of Bay K 8644)” value turned out to be 100%. For the same compound, the “calcium ion influx and resulting effects” value in the data set on calcium ions influx was “promote an influx of calcium ions, therefore producing positive inotropic and vasoconstrictor effects”. In addition, the “potency as a calcium agonist relative to CGP28392” value in the data set with calcium ions influx (compared with CGP28392) was “more than 10 times”. Moreover, in data set [1], the toxicity entry is “toxic because it causes coronary vasoconstriction”.

Take `CCOC(=O)C1=C(C)NC2=C(C(=O)OC2)C1c1ccccc1OC(F)F` (stereo not shown) [CGP28392]: the “calcium ion influx and resulting effects” value with calcium ions influx was “promote an influx of calcium ions, therefore producing positive inotropic and vasoconstrictor effects”.

As for `COC(=O)C1=C(C)NC(C)=C([N+](=O)[O-])C1c1cccc(OC)c1OCCCN1CCN(c2ccccc2OC)CC1` (stereo not shown) [Example 106], in the data set on guinea pig left atria, the EC50 is above 100000 nM and the “Intrinsic Activity (ratio of the maximum effect of the test compound to that of Bay K 8644)” value is given as 0%. The IC50 on alpha1 -adrenoceptors was found to be 140 nM. Besides, on Ca^2 + channels, the IC50 was 250 nM.

`COC(=O)C1=C(C)NC(C)=C([N+](=O)[O-])C1c1cccc(OCCCCN2CCN(c3ccccc3OC)CC2)c1` (stereo not shown) [Example 107]: in the data set with guinea pig left atria, the EC50 was above 100000 nM and the “Intrinsic Activity (ratio of the maximum effect of the test compound to that of Bay K 8644)” value is 0%. At alpha1 -adrenoceptors, this compound yielded an IC50 of 410 nM. On Ca^2 + channels, the IC50 came out at 4100 nM.

For `CCOc1cccc(C2C(C(=O)OC)=C(C)NC(C)=C2[N+](=O)[O-])c1OCCCN1CCN(c2ccccc2OC)CC1` (stereo not shown) [Example 108], in the data set on guinea pig left atria, the EC50 is above 100000 nM and the “Intrinsic Activity (ratio of the maximum effect of the test compound to that of Bay K 8644)” value was determined as 0%. In addition, the IC50 on alpha1 -adrenoceptors was 1200 nM. Moreover, the IC50 at Ca^2 + channels stood at 990 nM.

For the compound `CCOc1cccc(C2C(C(=O)OC)=C(C)NC(C)=C2[N+](=O)[O-])c1OCCCCN1CCN(c2ccccc2OC)CC1` (stereo not shown) [Example 109], in the data set with guinea pig left atria, the EC50 is above 100000 nM and the “Intrinsic Activity (ratio of the maximum effect of the test compound to that of Bay K 8644)” value came to 0%. This compound had an IC50 on alpha1 -adrenoceptors of 610 nM. Also, the IC50 at Ca^2 + channels stood at 790 nM.

With `COC(=O)C1=C(C)NC(C)=C([N+](=O)[O-])C1c1cccc(OC)c1OCCCCN1CCN(c2ccccc2OC)CC1` (stereo not shown) [Example 110], in the data set with guinea pig left atria, the EC50 was above 100000 nM and the “Intrinsic Activity (ratio of the maximum effect of the test compound to that of Bay K 8644)” value stood at 0%. The same compound came in with an IC50 on alpha1 -adrenoceptors of 160 nM. Moreover, the IC50 at Ca^2 + channels is 1000 nM.

On to `COC(=O)C1=C(C)NC(C)=C([N+](=O)[O-])C1c1cccc(OC)c1OCCCCCN1CCN(c2ccccc2OC)CC1` (stereo not shown) [Example 111], for which the EC50 in the data set on guinea pig left atria is above 100000 nM. The “Intrinsic Activity (ratio of the maximum effect of the test compound to that of Bay K 8644)” value in the data set with guinea pig left atria is listed as 0%. The results for the IC50 at alpha1 -adrenoceptors and on Ca^2 + channels were 190 nM and 850 nM, respectively.

On to `CCOc1cccc(C2C(C(=O)OC)=C(C)NC(C)=C2[N+](=O)[O-])c1OCCCCCN1CCN(c2ccccc2OC)CC1` (stereo not shown) [Example 112], for which, in the data set with guinea pig left atria, the EC50 is above 100000 nM and the “Intrinsic Activity (ratio of the maximum effect of the test compound to that of Bay K 8644)” value is 0%. In addition, the IC50 on alpha1 -adrenoceptors is 180 nM. Moreover, on Ca^2 + channels, the IC50 came to 1700 nM.

For `COC(=O)C1=C(C)NC(C)=C([N+](=O)[O-])C1c1cccc(OCCCCCN2CCN(c3ccccc3OC)CC2)c1` (stereo not shown) [Example 113], in the data set with guinea pig left atria, the EC50 was above 100000 nM and the “Intrinsic Activity (ratio of the maximum effect of the test compound to that of Bay K 8644)” value was 0%. The compound also returned an IC50 on alpha1 -adrenoceptors of 570 nM. In addition, on Ca^2 + channels, the IC50 worked out at 3300 nM.

In the case of `COC(=O)C1=C(C)NC(C)=C([N+](=O)[O-])C1c1cccc(OC)c1OC/C=C\CN1CCN(c2ccccc2OC)CC1` (stereo not shown) [Example 114], the EC50 with guinea pig left atria is above 100000 nM. Besides, in the data set on guinea pig left atria, the “Intrinsic Activity (ratio of the maximum effect of the test compound to that of Bay K 8644)” value is reported as 0%. For the same compound, the half-maximal inhibitory concentration (IC50) at alpha1 -adrenoceptors came to 240 nM; at Ca^2 + channels it was 1600 nM.

Regarding `COC(=O)C1=C(C)NC(C)=C([N+](=O)[O-])C1c1ccccc1OCCCCN1CCN(c2ccccn2)CC1` (stereo not shown) [Example 116], in the data set on guinea pig left atria, the EC50 was above 100000 nM and the “Intrinsic Activity (ratio of the maximum effect of the test compound to that of Bay K 8644)” value was determined as 0%. The IC50 on alpha1 -adrenoceptors is 500 nM. Moreover, the IC50 on Ca^2 + channels turned out to be 580 nM.

On to `CCOC(=O)C1=C(C)NC(C)=C([N+](=O)[O-])C1c1cccc(OCCCN2CCN(c3ccccc3OC)CC2)c1` (stereo not shown) [Example 117], for which the EC50 in the data set with guinea pig left atria was above 100000 nM. Besides, the “Intrinsic Activity (ratio of the maximum effect of the test compound to that of Bay K 8644)” value in the data set on guinea pig left atria came out at 0%. In addition, the IC50 on alpha1 -adrenoceptors is 280 nM; at Ca^2 + channels, 10000 nM.

Turning to `CCOC(=O)C1=C(C)NC(C)=C([N+](=O)[O-])C1c1ccccc1OCCCCN1CCN(c2ccccc2OC)CC1` (stereo not shown) [Example 120], in the data set on guinea pig left atria, the EC50 is 30000 nM and the “Intrinsic Activity (ratio of the maximum effect of the test compound to that of Bay K 8644)” value is 50%. The compound further displayed an IC50 at alpha1 -adrenoceptors of 440 nM. For the same compound, the IC50 at Ca^2 + channels came to 470 nM.

On to `COC(=O)C1=C(C)NC(C)=C([N+](=O)[O-])C1c1cccc(OCCCN2CCN(C(c3ccc(F)cc3)c3ccc(F)cc3)CC2)c1` (stereo not shown) [Example 123], for which, in the data set with guinea pig left atria, the EC50 is above 100000 nM and the “Intrinsic Activity (ratio of the maximum effect of the test compound to that of Bay K 8644)” value worked out at 0%. This compound also registered a 50% inhibitory concentration (IC50) on alpha1 -adrenoceptors of 4500 nM. Further, the IC50 on Ca^2 + channels was found to be 1700 nM.

As for `COC(=O)C1=C(C)NC(C)=C([N+](=O)[O-])C1c1cccc(OCC=CCN2CCN(c3ccccc3OC)CC2)c1` (stereo not shown) [Example 125], in the data set with guinea pig left atria, the EC50 is above 100000 nM and the “Intrinsic Activity (ratio of the maximum effect of the test compound to that of Bay K 8644)” value stood at 0%. On alpha1 -adrenoceptors, this compound showed an IC50 of 440 nM. The IC50 at Ca^2 + channels was 1400 nM.

As to `COC(=O)C1=C(C)NC(C)=C([N+](=O)[O-])C1c1ccccc1OCCCCCCN1CCN(c2ccccc2OC)CC1` (stereo not shown) [Example 129], in the data set on guinea pig left atria, the EC50 was determined as 2000 nM and the “Intrinsic Activity (ratio of the maximum effect of the test compound to that of Bay K 8644)” value came to 15%. On alpha1 -adrenoceptors, the IC50 was 380 nM. In addition, the concentration for half-maximal inhibition (IC50) at Ca^2 + channels came to 360 nM.

Consider `COC(=O)C1=C(C)NC(C)=C([N+](=O)[O-])C1c1cccc(OCCCCCCN2CCN(c3ccccc3OC)CC2)c1` (stereo not shown) [Example 130], for which, in the data set on guinea pig left atria, the EC50 was found to be 3000 nM. The “Intrinsic Activity (ratio of the maximum effect of the test compound to that of Bay K 8644)” value with guinea pig left atria is listed as 25%. For the same compound, the IC50 at alpha1 -adrenoceptors is 330 nM; at Ca^2 + channels, 380 nM.

In the case of `COC(=O)C1=C(C)NC(C)=C([N+](=O)[O-])C1c1cccc([N+](=O)[O-])c1OCCCN1CCN(c2ccccc2OC)CC1` (stereo not shown) [Example 139], the EC50 in the data set on guinea pig left atria was above 100000 nM. The “Intrinsic Activity (ratio of the maximum effect of the test compound to that of Bay K 8644)” value in the data set with guinea pig left atria stood at 0%. Moreover, the IC50 on alpha1 -adrenoceptors was found to be 140 nM; at Ca^2 + channels it was 120 nM.

Consider `COC(=O)C1=C(C)NC(C)=C([N+](=O)[O-])C1c1cccc([N+](=O)[O-])c1OCCCCCN1CCN(c2ccccc2OC)CC1` (stereo not shown) [Example 140], for which, in the data set with guinea pig left atria, the EC50 was above 100000 nM and the “Intrinsic Activity (ratio of the maximum effect of the test compound to that of Bay K 8644)” value worked out at 0%. The same compound registered an IC50 at alpha1 -adrenoceptors of 180 nM. Also, the IC50 at Ca^2 + channels amounted to 160 nM.

Regarding `COC(=O)C1=C(C)NC(C)=C([N+](=O)[O-])C1c1cc(Br)ccc1OCCCCN1CCN(c2ccccc2OC)CC1` (stereo not shown) [Example 142], in the data set with guinea pig left atria, the EC50 was above 100000 nM and the “Intrinsic Activity (ratio of the maximum effect of the test compound to that of Bay K 8644)” value stood at 0%. For the same compound, the IC50 at alpha1 -adrenoceptors stood at 250 nM. Besides, the IC50 at Ca^2 + channels was 180 nM.
